Numbered stars: 1 amine (or outer) side, 2 acyl side, 3 side chain; on linkers, the order of the positions; unused ones are H or OH. Bridge positions count the residues as written; N and C are the ends. Square brackets hold non-standard residues; d marks the D form. Peptide text beside a SMILES is read from it. * marks the point of attachment. ξ: configuration not given here. Trp(βS-Me) = C[C@@H](c1c[nH]c2ccccc12)[C@H](N)C(=O)O; Phe(3-CF3) = N[C@@H](Cc1cccc(C(F)(F)F)c1)C(=O)O; Phe(4-COOH) = N[C@@H](Cc1ccc(C(=O)O)cc1)C(=O)O; Bip = N[C@@H](Cc1ccc(-c2ccccc2)cc1)C(=O)O; X10 = O=C([C@H](Cc1cc[nH]c1)N[*:1])[*:2]; Phe(3-Me) = Cc1cccc(C[C@H](N)C(=O)O)c1; ξBip = NC(Cc1ccc(-c2ccccc2)cc1)C(=O)O; NH(CH2)12COOH = O=C(O)CCCCCCCCCCCCN*; Val(3-OH) = CC(C)(O)[C@H](N)C(=O)O; hArg = N=C(N)NCCCC[C@H](N)C(=O)O; Cha = N[C@@H](CC1CCCCC1)C(=O)O; Cit = NC(=O)NCCC[C@H](N)C(=O)O; Thr(3ξ) = CC(O)[C@H](N)C(=O)O; 12Ado = NCCCCCCCCCCCC(=O)O; hSer = N[C@@H](CCO)C(=O)O; Carboxymethyl = O=C(O)C*; Orn = NCCC[C@H](N)C(=O)O; Aun = NCCCCCCCCCCC(=O)O; Dab = NCC[C@H](N)C(=O)O; Dap = NC[C@H](N)C(=O)O; ξD = NC(CC(=O)O)C(=O)O; AEEA = NCCOCCOCC(=O)O; Ac3c = NC1(C(=O)O)CC1
Biological target: T1, PD-1/PD-L1 interaction (PE-labeled human PD-L1-Ig binding to Jurkat cell line over-expressing human PD-1) (Homo sapiens, UniProt Q15116)
T1 construct: expressed in transfected cells; host or cells: Jurkat
Assay: Jurkat-PD-1 Cell Binding High-Content Screening Assay (CBA)
Type: cell-based
Conditions: Jurkat cell line over-expressing human PD-1; PE-labeled PD-L1-Ig 20 nM final; read-out: Jurkat hPD1-PDL1 IC50
Outline: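 First, compound is added to PD-1-expressing Jurkat cells in serum-containing DMEM and left 2 h at 37° C. Next, PE-conjugated PD-L1-Ig is introduced at 20 nM final concentration for 1 hour. Finally, cells are fixed in 4% paraformaldehyde with Hoechst 33342, washed and imaged.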

T1 sequence (Q15116 25-288): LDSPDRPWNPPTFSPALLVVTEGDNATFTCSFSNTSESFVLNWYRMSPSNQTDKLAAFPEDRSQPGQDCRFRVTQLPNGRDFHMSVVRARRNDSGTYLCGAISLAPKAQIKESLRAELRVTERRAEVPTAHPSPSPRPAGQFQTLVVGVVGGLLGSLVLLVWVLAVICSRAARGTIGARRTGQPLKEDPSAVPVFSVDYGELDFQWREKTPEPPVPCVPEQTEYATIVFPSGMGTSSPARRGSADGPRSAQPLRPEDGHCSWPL

| Structure (SMILES) | IC50 [nM] |
| --- | --- |
| CC(C)C[C@@H]1NC(=O)[C@H](Cc2c[nH]c3ccccc23)NC(=O)[C@H](CC(=O)O)NC(=O)[C@H](Cc2ccc(OCC(=O)O)cc2)NC(=O)[C@H](C(C)O)NC(=O)CSC[C@@H](C(=O)N[C@@H](CCN)C(=O)NCCCCCCCCCCC(=O)O)NC(=O)[C@H](Cc2cnc[nH]2)NC(=O)[C@H](C(C)O)NC(=O)[C@H](CC2CCCCC2)NC(=O)[C@H](CCN)NC(=O)[C@@H](CC(C)C)NC(=O)[C@H](CCCN)NC(=O)[C@H](C(C)C)NC(=O)[C@H](Cc2ccc(-c3ccccc3)cc2)NC1=O (stereo partly drawn) [Compound 3690] ({CH2CO}-[Thr(3ξ)]Y(Carboxymethyl)DWL[Bip]V[Orn][dL][Dab][Cha][Thr(3ξ)]HC[Dab][Aun]-OH; thioether N-14) | 38.8 |
| Cc1cccc(C[C@@H]2NC(=O)[C@H](CC(=O)O)NC(=O)[C@H](Cc3ccc(OCC(=O)O)cc3)NC(=O)[C@H](CCCCNC(=N)N)NC(=O)CSC[C@@H](C(=O)N[C@@H](CCCCN)C(=O)N[C@@H](CO)C(=O)NCCCCCCCCCCC(=O)O)NC(=O)[C@H](C(C)O)NC(=O)[C@H](C(C)O)NC(=O)[C@H](CC3CCCCC3)NC(=O)[C@H](CCN)NC(=O)[C@@H](CC(C)C)NC(=O)[C@H](CCCN)NC(=O)[C@H](CCCNC(=N)N)NC(=O)[C@H](Cc3ccc(-c4ccccc4)cc3)NC(=O)[C@H](C(C)C)NC2=O)c1 (stereo partly drawn) [Compound 3547] ({CH2CO}-[hArg]Y(Carboxymethyl)D[Phe(3-Me)]V[Bip]R[Orn][dL][Dab][Cha][Thr(3ξ)][Thr(3ξ)]CKS[Aun]-OH; thioether N-14) | 74 |
| CC(C)C[C@H]1NC(=O)[C@H](CCCN)NC(=O)[C@H](Cc2ccc(O)cc2)NC(=O)[C@H](Cc2ccc(-c3ccccc3)cc2)NC(=O)[C@H](Cc2ccc(O)cc2)NC(=O)[C@H](Cc2c[nH]c3ccccc23)NC(=O)[C@H](CC(=O)O)NC(=O)[C@H](Cc2ccc(OCC(=O)O)cc2)NC(=O)[C@H](C(C)O)NC(=O)CSC[C@@H](C(=O)N[C@H](CC(N)=O)C(=O)NCCCCCCCCCCC(=O)O)NC(=O)[C@H](CCC(N)=O)NC(=O)[C@H](C(C)C)NC(=O)[C@H](CC2CCCCC2)NC(=O)[C@H](CCN)NC1=O (stereo partly drawn) [Compound 3433] ({CH2CO}-[Thr(3ξ)]Y(Carboxymethyl)DWY[Bip]Y[Orn][dL][Dab][Cha]VQC[dN][Aun]-OH; thioether N-14) | 40.6 |
| CC(C)C[C@H]1NC(=O)[C@H](CCCN)NC(=O)[C@H](CCCNC(N)=O)NC(=O)[C@H](Cc2ccc(-c3ccccc3)cc2)NC(=O)[C@H](C(C)C)NC(=O)[C@H]([C@@H](C)c2c[nH]c3ccccc23)NC(=O)[C@H](CC(=O)O)NC(=O)[C@H](Cc2ccc(OCC(=O)O)cc2)NC(=O)[C@H](CCCNC(=N)N)NC(=O)CSC[C@@H](C(=O)NC2(C(=O)NCCCCCCCCCCC(=O)O)CC2)NC(=O)[C@H]([C@@H](C)O)NC(=O)[C@H](C(C)C)NC(=O)[C@H](CC2CCCCC2)NC(=O)[C@H](CCN)NC1=O [Compound 2134] ({CH2CO}-RY(Carboxymethyl)D[Trp(βS-Me)]V[Bip][Cit][Orn][dL][Dab][Cha]VTC[Ac3c][Aun]-OH; thioether N-14) | 38.5 |
| CC(C)C[C@H]1NC(=O)[C@H](CCCN)NC(=O)[C@H](Cc2ccc(C(=O)O)cc2)NC(=O)[C@H](Cc2ccc(-c3ccccc3)cc2)NC(=O)[C@H](Cc2ccc(C(=O)O)cc2)NC(=O)[C@H](Cc2cccc(C(F)(F)F)c2)NC(=O)[C@H](CC(=O)O)NC(=O)[C@H](Cc2ccc(OCC(=O)O)cc2)NC(=O)[C@H](C)NC(=O)CSC[C@@H](C(=O)N[C@@H](CCN)C(=O)NCCCCCCCCCCCCC(=O)O)NC(=O)[C@H](Cc2c[nH]cn2)NC(=O)[C@H](C(C)(C)O)NC(=O)[C@H](CC2CCCCC2)NC(=O)[C@H](CCN)NC1=O [Compound 2923] ({CH2CO}-AY(Carboxymethyl)D[Phe(3-CF3)][Phe(4-COOH)][Bip][Phe(4-COOH)][Orn][dL][Dab][Cha][Val(3-OH)]HC[Dab]-{NH(CH2)12COOH}; thioether N-14) | 22.5 |
| CC(C)C[C@H]1NC(=O)[C@H](CCCN)NC(=O)[C@H](C(C)C)NC(=O)[C@H](Cc2ccc(-c3ccccc3)cc2)NC(=O)[C@H](C(C)C)NC(=O)[C@H](Cc2c[nH]c3ccccc23)NC(=O)[C@H](CC(=O)O)NC(=O)[C@H](Cc2ccc(OCC(=O)O)cc2)NC(=O)[C@H](CN)NC(=O)CSC[C@@H](C(=O)N[C@@H](CCCCN)C(=O)NCCCCCCCCCCC(=O)O)NC(=O)[C@H](CN)NC(=O)[C@H](C(C)C)NC(=O)[C@H](CC2CCCCC2)NC(=O)[C@H](Cc2cc[nH]c2)NC1=O [Compound 2801] ({CH2CO}-[Dap]Y(Carboxymethyl)DWV[Bip]V[Orn][dL][X10][Cha]V[Dap]CK[Aun]-OH; thioether N-14) | 327 |
| CC(C)C[C@H]1NC(=O)[C@H](CCCN)NC(=O)[C@H](C(C)C)NC(=O)[C@H](Cc2ccc(-c3ccccc3)cc2)NC(=O)[C@H](C(C)C)NC(=O)[C@H](Cc2c[nH]c3ccccc23)NC(=O)[C@H](CC(=O)O)NC(=O)[C@H](Cc2c[nH]cn2)NC(=O)[C@H](CCCCNC(=N)N)NC(=O)CSC[C@@H](C(=O)N[C@@H](CCN)C(=O)NCCCCCCCCCCC(=O)O)NC(=O)[C@H](CO)NC(=O)[C@H](C(C)C)NC(=O)[C@H](CC2CCCCC2)NC(=O)[C@H](CCN)NC1=O [Compound 3271] ({CH2CO}-[hArg]HDWV[Bip]V[Orn][dL][Dab][Cha]VSC[Dab][Aun]-OH; thioether N-14) | 31.6 |
| Cc1cccc(C[C@@H]2NC(=O)[C@H](CC(=O)O)NC(=O)[C@H](Cc3ccc(OCC(=O)O)cc3)NC(=O)[C@H](CCN)NC(=O)CSC[C@@H](C(=O)N[C@@H](CCN)C(=O)NCCOCCOCC(=O)NCCOCCOCC(=O)NCCCCCCCCCCCCC(=O)O)NC(=O)[C@H](CO)NC(=O)[C@H](C(C)(C)O)NC(=O)[C@H](CC3CCCCC3)NC(=O)[C@H](Cc3c[nH]cn3)NC(=O)[C@@H](CC(C)C)NC(=O)[C@H](CCCN)NC(=O)[C@H](Cc3ccc(OCC(=O)O)cc3)NC(=O)[C@H](Cc3ccc(-c4ccccc4)cc3)NC(=O)[C@H](Cc3ccc(OCC(=O)O)cc3)NC2=O)c1 [Compound 2873] ({CH2CO}-[Dab]Y(Carboxymethyl)D[Phe(3-Me)]Y(Carboxymethyl)[Bip]Y(Carboxymethyl)[Orn][dL]H[Cha][Val(3-OH)]SC[Dab][AEEA][AEEA]-{NH(CH2)12COOH}; thioether N-14) | 34.5 |
| Cc1cccc(C[C@@H]2NC(=O)[C@H](CC(=O)O)NC(=O)[C@H](Cc3ccc(OCC(=O)O)cc3)NC(=O)[C@H](CCCCNC(=N)N)NC(=O)CSC[C@@H](C(=O)N[C@@H](CN)C(=O)N[C@@H](CCC(=O)O)C(=O)NCCCCCCCCCCCC(=O)O)NC(=O)[C@H](C(C)O)NC(=O)[C@H](C(C)C)NC(=O)[C@H](CC3CCCCC3)NC(=O)[C@H](CCN)NC(=O)[C@@H](CC(C)C)NC(=O)[C@H](CCCN)NC(=O)[C@H](CCCNC(N)=O)NC(=O)[C@H](Cc3ccc(-c4ccccc4)cc3)NC(=O)[C@H](C(C)C)NC2=O)c1 (stereo partly drawn) [Compound 3188] ({CH2CO}-[hArg]Y(Carboxymethyl)D[Phe(3-Me)]V[Bip][Cit][Orn][dL][Dab][Cha]V[Thr(3ξ)]C[Dap]E[12Ado]-OH; thioether N-14) | 302 |

Molecules with a lower IC50, results first:

| IC50 [nM] | Structure (SMILES) |
| --- | --- |
| 8.7 | CC(C)C[C@H]1NC(=O)[C@H](CCCN)NC(=O)[C@H](C(C)C)NC(=O)[C@H](Cc2ccc(-c3ccccc3)cc2)NC(=O)[C@H](C(C)C)NC(=O)[C@H](Cc2c[nH]c3ccccc23)NC(=O)[C@H](CC(=O)O)NC(=O)[C@H](Cc2ccc(OCC(=O)O)cc2)NC(=O)[C@H](CCCCNC(=N)N)NC(=O)CSC[C@@H](C(=O)N[C@H](CC(N)=O)C(=O)NCCCCCCCCCCC(=O)O)NC(=O)[C@H](CCCN)NC(=O)[C@H](C(C)C)NC(=O)[C@H](CC2CCCCC2)NC(=O)[C@H](CCN)NC1=O [Compound 3278] ({CH2CO}-[hArg]Y(Carboxymethyl)DWV[Bip]V[Orn][dL][Dab][Cha]V[Orn]C[dN][Aun]-OH; thioether N-14) |
| 18.4 | Cc1cccc(C[C@@H]2NC(=O)C(CC(=O)O)NC(=O)[C@H](Cc3ccc(OCC(=O)O)cc3)NC(=O)[C@H](CN)NC(=O)CSC[C@@H](C(=O)NCCOCCOCC(=O)N[C@@H](CCCNC(=N)N)C(=O)NCCCCCCCCCCC(=O)O)NC(=O)[C@H]([C@@H](C)O)NC(=O)[C@H](C(C)C)NC(=O)[C@H](CC3CCCCC3)NC(=O)[C@H](CCN)NC(=O)[C@@H](CC(C)C)NC(=O)[C@H](CCCN)NC(=O)[C@H](CCCNC(N)=O)NC(=O)C(Cc3ccc(-c4ccccc4)cc3)NC(=O)[C@H](C(C)C)NC2=O)c1 (stereo partly drawn) [Compound 1180] ({CH2CO}-[Dap]Y(Carboxymethyl)[ξD][Phe(3-Me)]V[ξBip][Cit][Orn][dL][Dab][Cha]VTC[AEEA]R[Aun]-OH; thioether N-14) |
| 20.9 | CC(C)C[C@H]1NC(=O)[C@H](CCCN)NC(=O)[C@H](Cc2ccc(O)cc2)NC(=O)[C@H](Cc2ccc(-c3ccccc3)cc2)NC(=O)[C@H](C(C)C)NC(=O)[C@H](Cc2c[nH]c3ccccc23)NC(=O)[C@H](CC(=O)O)NC(=O)[C@H](Cc2ccc(OCC(=O)O)cc2)NC(=O)[C@H](CCCCNC(=N)N)NC(=O)CSC[C@@H](C(=O)N[C@@H](CCN)C(=O)NCCCCCCCCCCC(=O)O)NC(=O)[C@H](CCO)NC(=O)[C@H](C(C)C)NC(=O)[C@H](CC2CCCCC2)NC(=O)[C@H](CCN)NC1=O [Compound 3408] ({CH2CO}-[hArg]Y(Carboxymethyl)DWV[Bip]Y[Orn][dL][Dab][Cha]V[hSer]C[Dab][Aun]-OH; thioether N-14) |
| 17.4 | CC(C)C[C@H]1NC(=O)[C@H](CCCN)NC(=O)[C@H](Cc2ccc(O)cc2)NC(=O)[C@H](Cc2ccc(-c3ccccc3)cc2)NC(=O)[C@H](Cc2ccc(O)cc2)NC(=O)[C@H](Cc2c[nH]c3ccccc23)NC(=O)[C@H](CC(=O)O)NC(=O)[C@H](Cc2ccc(OCC(=O)O)cc2)NC(=O)[C@H]([C@@H](C)O)NC(=O)CSC[C@@H](C(=O)N[C@@H](CCN)C(=O)NCCCCCCCCCCC(=O)O)NC(=O)[C@H]([C@@H](C)O)NC(=O)[C@H](C(C)C)NC(=O)[C@H](CC2CCCCC2)NC(=O)[C@H](CCN)NC1=O [Compound 2728] ({CH2CO}-TY(Carboxymethyl)DWY[Bip]Y[Orn][dL][Dab][Cha]VTC[Dab][Aun]-OH; thioether N-14) |
